Literature values in patent US9278365B2, “Volatile material dispenser and method of emitting a volatile material” (priority 2014, dated 2016).

Compound | log P (octanol/water partition coefficient) | solubility
Cc1ncsc1CCO [sulfurol] | 1.11 Log P | 
CC(=O)O[C@@H]1C[C@H]2CC[C@]1(C)C2(C)C (racemic) [iso-bornyl acetate] | 4.3 Log P | 
methy cyclopetenone | 1.29 Log P | 
OC/C=C/c1ccccc1 [cinnamic alcohol] | 2 Log P | 
CC(C=O)Cc1ccc(C(C)(C)C)cc1 (stereo not drawn) [lilial] | 4.4 Log P | 
COC(=O)c1ccccc1 [methyl benzoate] |  | 2.1 Log P
